Test results from US5541174A, “Analgesic method” (priority 1995, dated 1996).

Assays:
[1] = test system: acetic acid induced writhing in mice; experiment: Acetic acid-induced writhing test; assay type: in vivo, ICR male mice
Description: 1. Acetic acid-induced writhing test as described in Koster et al., "Acetic Acid for Analgesic Screening", Fed. Proc. 18, 412 (1959), incorporated by reference herein; and
Groups of 10 ICR male mice (Taisho Pharmaceutical Co. Research Center) were used to study each dose of every compound. Ligands or complexes were administered orally or subcutaneously in 0.1 ml of vehicle per 10 g of body weight 30 minutes before the intrapertioneal injection of 0.1 ml of 0.7% acetic acid solution per 10 g of body weight. Number of writhes were counted for each mouse during a period of 10 to 20 min after acetic acid injection. Inhibitory percent was calculated by comparison with the number of writhes in the non-treated control, vehicle-treated, and acetic acid-injected group. The ED50 value and 95% confidence limits were calculated from the inhibitory percent by the method of Litchfield and Wilcoxon.

[2] = test system: adjuvant-induced arthritic pain in rats; experiment: Adjuvant-induced arthritic pain; assay type: in vivo, male Sprague-Dawley rats
Source text: 2. Adjuvant-induced arthritic pain as described in:
S. KUZNA, et al., Measurement of Arthritic Pain and Effects of Analgesics in the Adjuvant-Treated Rat, Chem. Pharm. Bull. 23, 1184-1191 (1975);
C. A. WINTER, et al., Analgesic Activity of Diflunisal in Rats with Hyperalygesia Induced by Freud's Adjuvant, J. Pharmacol. Exp. Ther. 211, 678-685 (1979; and
M. E. ROSENTHALE, et al., Adjuvant Arthritis:Immuno-Pathological and Hyperalgesic Features, Fed. Proced. 41, 2577-2582 (1982),
incorporated by reference herein.
Groups of 5-6 male Sprague-Dawley rats (Taisho Pharmaceutical Co. Research Center) weighing 140 to 160 g at the time of Mycobacterium butyricum (adjuvant, Difco Laboratories, Detroit, Mich.) injection were used to study each compound. Rats were injected intradermally at the base of the tail with 0.1 ml of a parafin oil suspension of 0.5 mg of heat-killed mycobacterium. Fifteen to 19 days later, drugs were administered orally or subcutaneously in 0.5 ml of vehicle per 100 g of body weight to rats showing the nociceptive reaction, vocalization following a gentle flexion of the tarsal-tibial joint of the inflamed hind-paw. Vocalization responses were measured every hour for 5 hours. […] The ED50 value and 95% confidence limits were calculated from the positive rate for non-treated controls, vehicle-treated adjuvant arthritic rats, by the method of Litchfield and Wilcoxin.
All drugs were suspended with 5% gum arabic in saline solution or wetted with enough propylene glycol to give a final concentration of 4% propylene glycol and the wetted solid suspended in 1.4% polyvinyl alcohol in saline.

[3] = oral, 5% gum arabic, 0.30 mmol/kg
[4] = oral, 5% gum arabic, 0.59 mmol/kg
[5] = oral, 5% gum arabic, 0.06 mmol/kg
[6] = oral, 5% gum arabic, 0.12 mmol/kg
[7] = oral, 5% gum arabic, 0.24 mmol/kg
[8] = oral, 5% gum arabic, 0.04 mmol/kg
[9] = oral, 5% gum arabic, 0.08 mmol/kg

## (Salicylato)2n -(aqua)4n -copper(II)n [Cu(II)(salicylate)2]
[1]; oral, 5% gum arabic in saline
  ED50: 0.65 mmol/kg
  analgesic effectiveness versus parent ligand: more effective than their parent ligands
[1]; [3]
  % Inhibition: 30%
[1]; [4]
  % Inhibition: 43%
[1]; oral, 5% gum arabic, 1.18 mmol/kg
  % Inhibition: 69%
[1]; oral, PG-PVA
  analgesic effectiveness versus parent ligand: more effective than their parent ligands
[1]; oral, PG-PVA in saline
  ED50: 1.53 mmol/kg
[1]; oral, PG-PVA, 0.30 mmol/kg
  % Inhibition: 20%
[1]; oral, PG-PVA, 0.59 mmol/kg
  % Inhibition: 27%
[1]; oral, PG-PVA, 1.18 mmol/kg
  % Inhibition: 46%
[1]; s.c., PG-PVA in saline
  ED50: 0.17 mmol/kg
[1]; s.c., PG-PVA, 0.07 mmol/kg
  % Inhibition: 40%
[1]; s.c., PG-PVA, 0.15 mmol/kg
  % Inhibition: 48%
[1]; s.c., PG-PVA, 0.30 mmol/kg
  % Inhibition: 66%
[2]; oral, 5% gum arabic
  analgesic effectiveness versus parent ligand: more effective than its parent ligand
[2]; oral, 5% gum arabic in saline
  ED50: 0.25 mmol/kg
[2]; oral, 5% gum arabic, 0.15 mmol/kg
  % Inhibition: 27%
[2]; [3]
  % Inhibition: 57%
[2]; [4]
  % Inhibition: 73%
[2]; oral, 5% gum arabic, FIG. 1, 5 hours post-treatment
  time course of analgesia: maintained or increased throughout the entire 5 hour post-treatment interval
[2]; oral, PG-PVA
  analgesic effectiveness versus parent ligand: more effective than its parent ligand
[2]; oral, PG-PVA in saline
  ED50: 0.12 mmol/kg
[2]; oral, PG-PVA, 0.15 mmol/kg
  % Inhibition: 30%
[2]; oral, PG-PVA, 0.30 mmol/kg
  % Inhibition: 47%
[2]; oral, PG-PVA, 0.59 mmol/kg
  % Inhibition: 90%
[2]; s.c., PG-PVA in saline
  ED50: 0.12 mmol/kg
[2]; s.c., PG-PVA, 0.04 mmol/kg
  % Inhibition: 20%
[2]; s.c., PG-PVA, 0.07 mmol/kg
  % Inhibition: 37%
[2]; s.c., PG-PVA, 0.15 mmol/kg
  % Inhibition: 57%

## Cu(II)2 (acetate)4
[1]; s.c., PG-PVA in saline
  ED50: 0.32 mmol/kg
[1]; s.c., PG-PVA, 0.21 mmol/kg
  % Inhibition: 42%
[1]; s.c., PG-PVA, 0.41 mmol/kg
  % Inhibition: 59%
[1]; s.c., PG-PVA, 0.83 mmol/kg
  % Inhibition: 61%
[1]; writhing model, Tables I and II
  effectiveness versus other compounds: more effective than anthranilic acid, salicylic acid, and aspirin
[2]; doses statistically significantly analgesic in the writhing model
  analgesic activity: devoid of analgesic activity
[2]; oral, PG-PVA in saline
  ED50: > 0.83 mmol/kg
[2]; oral, PG-PVA, 0.83 mmol/kg
  % Inhibition: 0%
[2]; s.c., PG-PVA in saline
  ED50: > 0.83 mmol/kg
[2]; s.c., PG-PVA, 0.83 mmol/kg
  % Inhibition: 3%

## Tetra(.eta.-acetylsalicylato)biscopper(II) [Cu(II)2 (aspirinate)4]
[1]; oral, 5% gum arabic in saline
  ED50: > 0.24 mmol/kg
  analgesic effectiveness versus parent ligand: more effective than their parent ligands
[1]; [5]
  % Inhibition: 37%
[1]; [6]
  % Inhibition: 38%
[1]; [7]
  % Inhibition: 33%
[1]; oral, PG-PVA
  analgesic effectiveness versus parent ligand: more effective than their parent ligands
[1]; oral, PG-PVA in saline
  ED50: 0.14 mmol/kg
[1]; oral, PG-PVA, 0.09 mmol/kg
  % Inhibition: 32%
[1]; oral, PG-PVA, 0.18 mmol/kg
  % Inhibition: 59%
[1]; oral, PG-PVA, 0.36 mmol/kg
  % Inhibition: 80%
[1]; s.c., PG-PVA in saline
  ED50: 0.04 mmol/kg
[1]; s.c., PG-PVA, 0.03 mmol/kg
  % Inhibition: 36%
[1]; s.c., PG-PVA, 0.06 mmol/kg
  % Inhibition: 59%
[1]; s.c., PG-PVA, 0.24 mmol/kg
  % Inhibition: 82%
[2]; oral, 5% gum arabic
  analgesic effectiveness versus parent ligand: more effective than their parent ligand
[2]; oral, 5% gum arabic in saline
  ED50: 0.29 mmol/kg
[2]; [5]
  % Inhibition: 7%
[2]; [6]
  % Inhibition: 17%
[2]; [7]
  % Inhibition: 43%
[2]; oral, PG-PVA in saline
  ED50: 0.09 mmol/kg
[2]; oral, PG-PVA, 0.03 mmol/kg
  % Inhibition: 13%
[2]; oral, PG-PVA, 0.06 mmol/kg
  % Inhibition: 30%
[2]; oral, PG-PVA, 0.12 mmol/kg
  % Inhibition: 60%
[2]; s.c., PG-PVA in saline
  ED50: 0.06 mmol/kg
[2]; s.c., PG-PVA, 0.03 mmol/kg
  % Inhibition: 23%
[2]; s.c., PG-PVA, 0.06 mmol/kg
  % Inhibition: 50%
[2]; s.c., PG-PVA, 0.12 mmol/kg
  % Inhibition: 73%

## [2[3(trifluoromethyl)phenyl]aminonicotinato]2n -(aqua)n -copper(II)n [Cu(II)2 (niflumate)4]
[1]; oral, 5% gum arabic in saline
  ED50: 0.09 mmol/kg
  analgesic effectiveness versus parent ligand: more effective than their parent ligands
[1]; [8]
  % Inhibition: 37%
[1]; [9]
  % Inhibition: 48%
[1]; oral, PG-PVA
  analgesic effectiveness versus parent ligand: more effective than their parent ligands
[1]; oral, PG-PVA in saline
  ED50: 0.10 mmol/kg
[1]; oral, PG-PVA, 0.06 mmol/kg
  % Inhibition: 33%
[1]; oral, PG-PVA, 0.12 mmol/kg
  % Inhibition: 57%
[1]; oral, PG-PVA, 0.24 mmol/kg
  % Inhibition: 73%
[1]; s.c., PG-PVA in saline
  ED50: 0.02 mmol/kg
[1]; s.c., PG-PVA, 0.01 mmol/kg
  % Inhibition: 37%
[1]; s.c., PG-PVA, 0.02 mmol/kg
  % Inhibition: 48%
[1]; s.c., PG-PVA, 0.04 mmol/kg
  % Inhibition: 58%
[2]; oral, 5% gum arabic
  analgesic effectiveness versus parent ligand: more effective than their parent ligand
[2]; oral, 5% gum arabic in saline
  ED50: 0.18 mmol/kg
[2]; [8]
  % Inhibition: 7%
[2]; [9]
  % Inhibition: 13%
[2]; oral, PG-PVA in saline
  ED50: > 0.16 mmol/kg
[2]; s.c., PG-PVA in saline
  ED50: 0.03 mmol/kg
[2]; s.c., PG-PVA, 0.01 mmol/kg
  % Inhibition: 17%
[2]; s.c., PG-PVA, 0.02 mmol/kg
  % Inhibition: 50%
[2]; s.c., PG-PVA, 0.04 mmol/kg
  % Inhibition: 60%
